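Values below derive from 48-hour exposures of cells grown in 96-well plates, with endpoints linearly interpolated between the two concentrations bracketing the appropriate inhibition level. GI50 is the concentration that inhibits growth by half.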 Activity calls are given as the source filed them. No stated cut-off is given here; in the data, active = GI50 up to about 1.1 µM and inactive = higher.
Legend:
Experiment in all cases: NCI anticancer screen, dose series, 48 h
M14 = tested on: M14
U-251 = tested on: U-251
HCC 2998 = tested on: HCC 2998
RPMI-8226 = tested on: RPMI-8226
MCF7 = tested on: MCF7
SF-268 = tested on: SF-268
HOP-92 = tested on: HOP-92
PC-3 = tested on: PC-3
TK-10 = tested on: TK-10
SK-MEL-2 = tested on: SK-MEL-2
A498 = tested on: A498
UACC-257 = tested on: UACC-257
ACHN = tested on: ACHN
Hs-578T = tested on: Hs-578T
MDA-MB-435 = tested on: MDA-MB-435
UACC-62 = tested on: UACC-62
SR = tested on: SR
RXF 393 = tested on: RXF 393
HL-60 = tested on: HL-60
OVCAR-8 = tested on: OVCAR-8

Measured: GI50

CCOC(=O)NC
inactive: M14 > 100 µM | U-251 > 100 µM | HCC 2998 > 100 µM | RPMI-8226 > 100 µM | MCF7 > 100 µM | SF-268 > 100 µM | HOP-92 > 100 µM | PC-3 > 100 µM | TK-10 > 100 µM | SK-MEL-2 > 100 µM | A498 > 100 µM | UACC-257 > 100 µM | ACHN > 100 µM | Hs-578T > 100 µM | MDA-MB-435 > 100 µM | UACC-62 > 100 µM | SR > 100 µM | RXF 393 > 100 µM | HL-60 > 100 µM

Nc1nc(Cl)cc(NCC2(O)CC(CO)C2)n1 (stereo not given)
inactive: U-251 > 100 µM | HCC 2998 > 100 µM | RPMI-8226 > 100 µM | MCF7 > 100 µM | SF-268 > 100 µM | HOP-92 > 100 µM | PC-3 > 100 µM | TK-10 > 100 µM | SK-MEL-2 > 100 µM | A498 > 100 µM | UACC-257 > 100 µM | ACHN > 100 µM | Hs-578T > 100 µM | MDA-MB-435 > 100 µM | UACC-62 > 100 µM | SR > 100 µM | OVCAR-8 > 100 µM | RXF 393 > 100 µM | HL-60 > 100 µM

CN(C)/C=N\c1cccc2cnccc12
inactive: M14 > 100 µM | U-251 > 100 µM | RPMI-8226 > 100 µM | MCF7 > 100 µM | SF-268 > 100 µM | HOP-92 > 100 µM | PC-3 > 100 µM | TK-10 > 100 µM | SK-MEL-2 > 100 µM | A498 > 100 µM | UACC-257 > 100 µM | ACHN > 100 µM | Hs-578T > 100 µM | MDA-MB-435 > 100 µM | UACC-62 > 100 µM | SR > 100 µM | OVCAR-8 > 100 µM | RXF 393 > 100 µM | HL-60 > 100 µM

CC(=O)OC1(C)C(=O)OC/C2=C/CN(C)CCC(OC(=O)C(O)(C(C)Cl)CC1C)C2=O.c1ccccc1 (stereo not given)
inactive: M14 > 100 µM | U-251 > 100 µM | HCC 2998 > 100 µM | RPMI-8226 > 100 µM | MCF7 > 100 µM | SF-268 > 100 µM | HOP-92 > 100 µM | PC-3 > 100 µM | TK-10 > 100 µM | SK-MEL-2 > 100 µM | A498 > 100 µM | UACC-257 > 100 µM | ACHN > 100 µM | Hs-578T > 100 µM | MDA-MB-435 > 100 µM | UACC-62 > 100 µM | SR > 100 µM | OVCAR-8 > 100 µM | HL-60 > 100 µM

COCCN(C(C)=O)C1CCC2(SCCS2)c2[nH]c3ccccc3c21 (stereo not given)
inactive: U-251 > 100 µM | HCC 2998 > 100 µM | RPMI-8226 35.5 µM | MCF7 > 100 µM | SF-268 > 100 µM | HOP-92 70.3 µM | PC-3 > 100 µM | TK-10 > 100 µM | A498 > 100 µM | UACC-257 > 100 µM | ACHN > 100 µM | Hs-578T > 100 µM | MDA-MB-435 > 100 µM | SR 42.5 µM | OVCAR-8 > 100 µM | RXF 393 > 100 µM | HL-60 > 100 µM

COc1ccc(C2OCCN2C)cc1 (stereo not given)
inactive: M14 > 100 µM | U-251 > 100 µM | RPMI-8226 > 100 µM | MCF7 > 100 µM | SF-268 > 100 µM | HOP-92 > 100 µM | PC-3 > 100 µM | TK-10 > 100 µM | SK-MEL-2 > 100 µM | A498 > 100 µM | UACC-257 > 100 µM | ACHN > 100 µM | Hs-578T > 100 µM | MDA-MB-435 > 100 µM | UACC-62 > 100 µM | SR > 100 µM | OVCAR-8 > 100 µM | RXF 393 > 100 µM

CCOC(=O)c1cc(C(O)P2(=O)N(CC(C)(C)C)[C@@H]3CCCC[C@H]3N2CC(C)(C)C)cn1C(=O)OC(C)(C)C (stereo not given in full)
inactive: M14 16.2 µM | U-251 15.9 µM | HCC 2998 16.2 µM | RPMI-8226 12.7 µM | MCF7 18.7 µM | SF-268 15.8 µM | PC-3 15.9 µM | TK-10 22.6 µM | SK-MEL-2 17.7 µM | A498 23.9 µM | UACC-257 14.4 µM | ACHN 28.1 µM | Hs-578T 16.9 µM | MDA-MB-435 13.9 µM | UACC-62 13.7 µM | SR 10.2 µM | OVCAR-8 24.8 µM | RXF 393 12 µM | HL-60 24.5 µM
